Measurements published in patent US8637553B2, “Fluoro substituted omega-carboxyaryl diphenyl urea for the treatment and prevention of diseases and conditions” (Bayer Healthcare LLC, priority 2003, dated 2014).

How the values were obtained:
p38 α2 = target: T1, p38 α2 (Homo sapiens, UniProt Q16539); test: p38 kinase in vitro assay; settings: in vitro kinase biochemical assay
T1 construct: His; made in house; host or cells: E. coli
Protocol: Purified and His-tagged p38 α2 (expressed in E. Coli) was activated in vitro by MMK-6 to a high specific activity. Using a microtiter format, all reactions were conducted in 100 μL volumes with reagents diluted to yield 0.05 μg/well of activated p38 α2 and 10 μg/well of myelin basic protein in assay buffer (25 mM HEPES 7.4, 20 mM MgCl2, 150 mM NaCl). Test compounds (5 μL of a 10% DMSO solution in water) were prepared and diluted into the assay to cover a final concentration range from 5 nM to 2.5 μM. The kinase assay was initiated by addition of 25 μL of an ATP cocktail to give a final concentration of 10 μM cold ATP and 0.2 μCi [gamma-^33P] ATP per well (200-400 dpm/pmol of ATP). The plate was incubated at 32° C. for 35 min., and the reaction quenched with 7 μL of a 1 N aq HCl solution. The samples were harvested onto a P30 Filtermat (Wallac, Inc.) using a TomTec 1295 Harvester (Wallac, Inc.), and counted in a LKB 1205 Betaplate Liquid Scintillation Counter (Wallac, Inc.). Negative controls included substrate plus ATP alone. SW1353 cellular assay: SW1353 cells (human chondro-sarcoma) are seeded (1000 cells/100 μL DMEM 10% FCS/well) into 96-well plates and incubated overnight. […] Cultures are incubated for 48 h at 37° C., then supernatant IL-6 values are determined by ELISA.

pERK in MDA-MB-231 cells = test: Bio-Plex phospho-ERK 1/2 immunoassay (basal pERK); format: cell-based; settings: Homo sapiens, 2 h incubation
Protocol: A 96 well pERK immunoassay, using laser flow cytometry (Bio-Rad) platform has been established to measure inhibition of basal pERK in breast cancer cell line. MDA-MB-231 cells were plated at 50,000 cells per well in 96 well microtitre plates in complete growth media. For effects of test compounds on basal pERK½ inhibition, the next day after plating, MDA-MB-231 cells were transferred to DMEM with 0.1% BSA and incubated with test compounds diluted 1:3 to a final concentration of 3 μM to 12 nM in 0.1% DMSO. Cells were incubated with test compounds for 2 h, washed, and lysed in Bio-Plex whole cell lysis buffer A. Samples are diluted with buffer B 1:1 (v/v) and directly transferred to assay plate or frozen at −80 C. degrees until processed. 50 μL of diluted MDA-MB-231 cell lysates were incubated with about 2000 of 5 micron Bio-Plex beads conjugated with an anti-ERK½ antibody overnight on a shaker at room temperature. The next day, biotinylated phospho-ERK½ sandwich immunoassay was performed, beads are washed 3 times during each incubation and then 50 μL of PE-strepavidin was used as a developing reagent. The relative fluorescence units of pERK½ were detected by counting 25 beads with Bio-Plex flow cell (probe) at high sensitivity. The IC50 was calculated by taking untreated cells as maximum and no cells (beads only) as background using in an Excel spreadsheet based program.

MDA-MB-231 cells = test: MDA-MB231 proliferation assay (CellTiter-Glo); format: cell-based; settings: Homo sapiens, 72 hours
Protocol: Human breast carcinoma cells (MDA MB-231, NCI) were cultured in standard growth medium (DMEM) supplemented with 10% heat-inactivated FBS at 37° C. in 5% CO2 (vol/vol) in a humidified incubator. Cells were plated at a density of 3000 cells per well in 90 μL growth medium in a 96 well culture dish. In order to determine T0h CTG values, 24 hours after plating, 100 μL of CellTiter-Glo Luminescent Reagent (Promega) was added to each well and incubated at room temperature for 30 minutes. Luminescence was recorded on a Wallac Victor II instrument. The CellTiter-Glo reagent results in cell lysis and generation of a luminescent signal proportional to the amount of ATP present, which, in turn is directly proportional to the number of cells present.
Test compounds are dissolved in 100% DMSO to prepare 10 mM stocks. […] The cells with and without individual test compounds were incubated for 72 hours at which time ATP dependent luminescence was measured, as described previously, to yield T72h values. Optionally, the IC50 values can be determined with a least squares analysis program using compound concentration versus percent inhibition. % Inhibition=[1−(T72h test−T0h)/(T72h ctrl−T0h)]×100, where T72h test=ATP dependent luminescence at 72 hours in the presence of test compound T72h ctrl=ATP dependent luminescence at 72 hours in the absence of test compound T0h=ATP dependent luminescence at Time Zero

[1] = test system: phospho-PDGFR-beta in aortic smooth muscle cells; test: pPDGFR-beta in AoSMC cells; format: cell-based; settings: PDGF-BB stimulated
Protocol: 100K P3-P6 Aortic SMC were plated in each well of 12-well cluster in 1000 μL volume/well of SGM-2 using standard cell culture techniques. Next day, cells were rinsed with 1000 μL D-PBS once, then serum starved in 500 μL SBM (smooth muscle cell basal media) with 0.1% BSA overnight. Compounds were diluted at a dose range from (10 μM to 1 nM in 10-fold dilution steps in DMSO. Final DMSO concentration 0.1%). Remove old media by inversion into the sink quickly then add 100 μL of each dilution to corresponding well of cells for 1 h at 37° C. Cells were then stimulated with 10 ng/mL PDGF-BB ligand for 7 min at 37° C. The media is decanted and 150 μL of isotonic lysis buffer with protease inhibitor tablet (Complete; EDTA-free) and 0.2 mM Na vanadate is added. Cells are lysed for 15 min at 4° C. on shaker in cold room. Lysates are put in eppendorf tubes to which 15 μL of agarose-conjugated anti-PDGFR-beta antibody is added and incubated at 4° C. overnight. Next day, beads are rinsed in 50-volumes of PBS three times and boiled in 1×LDS sample buffer for 5 minutes. Samples were run on 3-8% gradient Tris-Acetate gels and transferred onto Nitrocellulose. Membranes were blocked in 1% BSA/TBS-T for 1 hr. before incubation in anti-phospho-PDGFR-b (Tyr-857) antibody in blocking buffer (1:1000 dilution) for 1 h. […]

T1 sequence (Q16539 whole entry): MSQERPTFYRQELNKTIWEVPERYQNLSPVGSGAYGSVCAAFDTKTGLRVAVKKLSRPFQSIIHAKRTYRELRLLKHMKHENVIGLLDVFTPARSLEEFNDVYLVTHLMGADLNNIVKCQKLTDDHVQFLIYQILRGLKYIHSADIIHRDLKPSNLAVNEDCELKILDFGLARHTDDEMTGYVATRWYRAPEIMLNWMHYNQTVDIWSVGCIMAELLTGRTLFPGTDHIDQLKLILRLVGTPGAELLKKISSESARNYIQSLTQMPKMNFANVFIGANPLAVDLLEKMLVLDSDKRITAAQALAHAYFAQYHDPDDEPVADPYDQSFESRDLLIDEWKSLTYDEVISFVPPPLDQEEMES

Question: For `CNC(=O)c1cc(Oc2ccc(NC(=O)Nc3ccc(Cl)c(C(F)(F)F)c3)c(F)c2)ccn1` [Example 1, 4{4-[3-(4-chloro-3-trifluoromethylphenyl)-ureido]-3-fluorophenoxy}-pyridine-2-carboxylic acid methylamide], which IC50 (p38 α2) is on record?
Answer: 24 nM

Question: And the IC50 (pERK in MDA-MB-231 cells)?
Answer: 22 nM

Question: And the IC50 (MDA-MB-231 cells)?
Answer: 600 nM

Question: And the IC50 [1]?
Answer: 43.6 nM
